Data taken from ChEMBL document CHEMBL1122786, “Synthesis and antifolate properties of 10-alkyl-8,10-dideazaminopterins” (J Med Chem, 1984).

Legend:
[1] = test system: Mus musculus; test: Compound was evaluated for antitumor activity against L1210 leukemia in mice and LD10 was determined 24 hour after subcutaneous administration in 10 E 6 cells implanted intraperitoneally.; format: ADME, organism-based; settings: in vivo, sc
[2] = organism: Mus musculus; test: Compound was evaluated for antitumor activity against L1210 leukemia in mice and percent increase in life span was determined.; format: functional
[3] = organism: Mus musculus; test: Compound was evaluated for antitumor activity against L1210 leukemia in mice and median survival time was determined at ten mice per run.; format: functional
[4] = organism: Mus musculus; test: Compound was evaluated for antitumor activity against L1210 leukemia in mice and median survival time was determined at ten animals per run.; format: functional

CC(Cc1ccc2nc(N)nc(N)c2n1)c1ccc(C(=O)NC(CCC(=O)O)C(=O)O)cc1 (stereo not drawn)
LD10 [1]: 0.6 mg/kg | ILS [2]: 203% | MST [3]: 21.5 days

CCC(Cc1ccc2nc(N)nc(N)c2n1)c1ccc(C(=O)NC(CCC(=O)O)C(=O)O)cc1 (stereo not drawn)
LD10 [1]: 1.5 mg/kg | ILS [2]: 235% | MST [4]: 23.8 days

Nc1nc(N)c2nc(CCc3ccc(C(=O)NC(CCC(=O)O)C(=O)O)cc3)ccc2n1 (stereo not drawn)
LD10 [1]: 0.75 mg/kg | ILS [2]: 189%

CCCC(Cc1ccc2nc(N)nc(N)c2n1)c1ccc(C(=O)NC(CCC(=O)O)C(=O)O)cc1 (stereo not drawn)
LD10 [1]: 6 mg/kg | ILS [2]: 176%

CN(Cc1cnc2nc(N)nc(N)c2n1)c1ccc(C(=O)N[C@@H](CCC(=O)O)C(=O)O)cc1 [METHOTREXATE]
LD10 [1]: 15 mg/kg | ILS [2]: 187% | MST [4]: 20.4 days
